Values quoted from earlier work in patent US20240016803A1, “PHARMACEUTICAL COMPOSITION COMPRISING EICOSAPENTAENOIC ACID AND DERIVATIVES THEREOF AND A STATIN” (Amarin Pharmaceuticals Ireland Limited, priority 2013, published 2024).

Details: repeated twice-daily dosing of 2 icosapent ethyl 1 g capsules (4 g/d total); previously reported

CC/C=C\C/C=C\C/C=C\C/C=C\C/C=C\CCCC(=O)OCC [icosapent ethyl]
mean elimination half-life (t1/2) for total plasma EPA: 89 h
